Data published in PMC4946153 (Cardiovascular Diabetology, 2016).
Like-named read-outs stand apart in the source and are kept apart here.

Columns and labels:
[1] = test system: H9c2-E2 cells (H9c2 overexpressing the human insulin receptor); experiment: Caspase 3/7 activity assay in H9c2-E2 cells; format: cell-based, rat; conditions: for prevention of H2O2-induced caspase 3/7 activation (in words): 100 nM + 800 µM H2O2, 2 h
Description: (§1) The cardiac mouse cell line HL-1, a cell line derived from the AT-1 mouse atrial cardiomyocyte tumour lineage, was kindly provided by Dr. W.C. Claycomb (Louisiana State University, New Orleans, LA, USA). HL-1 cells were cultivated in Claycomb medium containing 10 % fetal calf serum (FCS), 100 µM norepinephrine and 4 mM L-glutamine (all from Sigma-Aldrich, Munich, Germany) on gelatine/fibronectin coated plates. H9c2 cells (ATCC CRL-1446), stably transfected with the human IR in our laboratory (H9c2-E2) were cultivated in DMEM, low glucose containing 10 % FCS, 1 % non–essential amino acids and 600 µg/ml G418 (all from Invitrogen, Carlsbad, CA, USA). Commercially available iPS-derived human cardiomyocytes (Cor.4U®) (Axiogenesis, Cologne, Germany) were cultured in Cor.4U® Complete Medium containing 10 % FCS on fibronectin–coated 96-well E-Plate (Acea Biosciences, San Diego, CA, USA). The medium was changed twice daily. All cells were incubated at 37 °C with 5 % CO2 in a humidified incubator.
Caspase 3/7 activity was then measured by the caspase-Glo® 3/7 assay system (Promega, Madison, Wisconsin, USA) as described in the manual. After 2 h incubation period caspase 3/7 activity was analysed by measuring the luminescence in an Infinite 200 plate reader (Tecan, Männedorf, Switzerland).

[2] = test system: cardiovascular effects in patients; conditions: ORIGIN trial, ref [15]; cited from earlier work
Excerpt: (§2) So far, finalised clinical data is only available for IGla, whereas for IDeg the investigation is still ongoing.

HL-1 cells = experiment: 2-deoxy-D-glucose uptake in HL-1 cardiomyocytes; format: cell-based, mouse; conditions: 200 nM, 60 min
Description: as §1
HL-1 cells were seeded at a density of 400,000 cells per well in a 12-well plate. […] Incorporated glucose was measured by scintillation counting of the cell lysates in a liquid scintillation counter (Beckman Coulter, Pasadena, CA, USA). Values were corrected for non-specific uptake as measured by incubation with L-[^14C]glucose (PerkinElmer, Waltham, MA, USA).

[3] = test system: Cor.4U human iPSC-derived cardiomyocytes; experiment: Beating-rate by impedance measurement in human Cor.4U cells; format: cell-based; conditions: 500 nM; for time to maximum beating-rate / beating-rate, area under the curve for 6 h: n = 4; for beating-rate, area under the curve for 6 h: vs. basal
Description: as §1
Cor.4U® cardiomyocytes were seeded at a density of 30,000 cells per well. From day 3 on the cells were cultured in Iscove’s Basal Medium containing 1 % GlutaMAX supplement (both Life Technologies, Carlsbad, CA, USA) and 2 µg/ml Ciprobay (Bayer, Leverkusen, Germany). […] Impedance of each well was measured with the RTCA Cardio xCELLigence Analyser (Acea Biosciences, San Diego, CA, USA) during the whole experiment. Beating-rate and cell index were analysed by RTCA cardio software (Acea Biosciences, San Diego, CA, USA).

[4] = test system: adult rat ventricular cardiomyocytes (ARVM); experiment: Contractility of paced adult rat ventricular cardiomyocytes; format: cell-based; conditions: 100 nM, 5 min pre-treatment, ARVM paced 1 Hz, 15 V, 0.5 ms, 37 °C; vs. control; n = 4
Description: Adult rat ventricular cardiomyocytes (ARVM) were isolated from wild-type Lewis rats (Lew/Crl) as previously described. […] Subsequently, ARVM were cultivated over-night in DMEM/F12 containing 33 µM biotin and 17 µM pantothenate (Invitrogen, Carlsbad, CA, USA). […] Furthermore, untreated ARVM or ARVM treated with 10 nM isoproterenol (Sigma-Aldrich, Munich, Germany) were immediately measured. ARVM were paced with bipolar pulses in a contractility and fluorescence system (IonOptix, Milton, MA, USA) at 15 V, 1 Hz, 0.5 ms, at 37 °C for up to 10 min and 10–14 contractions of at least 10 rod–shaped ARVM per condition were recorded. Sarcomeric shortening, shortening rate and re-lengthening rate were calculated using the IonWizard software (IonOptix, Milton, MA, USA). […] Afterwards, ARVM were treated as described above. […] Microscopic pictures were taken randomly with at least 10 pictures per condition. As a positive control 200 µM H2O2 was utilised. For each condition at least 400 cells were counted per experiment.

[5] = test system: Akt(Ser473) phosphorylation in HL-1 cells; experiment: Akt(Ser473) phosphorylation in HL-1 cells, Western blot; format: cell-based, mouse; conditions: for Akt(Ser473) phosphorylation level: vs. Ins and other analogues
Description: as §1

[6] = biological target: insulin receptor (solubilised, S-IR); experiment: Competition binding, solubilised IR (S-IR)
Description: Binding on a freshly solubilised IR preparation (S-IR) was performed as previously described with some modifications. Aliquots of membranes were incubated at 4 °C for 30 min in a solubilisation buffer (20 mM HEPES–NaOH, 100 mM NaCl, 10 mM MgSO4, 1 % (w/v) n-Dodecyl-ß-D-maltoside (Sigma-Aldrich, Munich, Germany), adjusted to pH 7.8 and Complete TM Protease Inhibitor cocktail). Thereafter, ultra-centrifugation was performed at 100,000g for 30 min and 4 °C to remove non–solubilised debris. Protein concentration in the supernatant was adjusted to 0.15 mg/ml with binding buffer (100 mM HEPES–NaOH, 100 mM NaCl, 10 mM MgSO4, 0.025 % (v/v) Tween-20, adjusted to pH 7.8 and complete TM protease inhibitor cocktail). To streptavidin SPA beads (5 mg in […] binding buffer), 50 µl of an anti-IR alpha-antibody 83-7 (Abcam, Cambridge, UK) was added. After incubation for 30 min, SPA beads were once washed and finally re-suspended in 500 µl binding buffer. A solution of solubilised receptor (1 ml, 0.15 mg/ml) was added and incubated for further 60 min, before washing and resuspension in 1.5 ml.
(§3) Results are expressed as mean values ± SEM of at least three independent experiments. For statistical analysis Graphpad Prism v5.00 (Graphpad Software, San Diego, CA, USA) was used. One-way ANOVA was performed to determine significance between conditions, with level of significance chosen at p < 0.05. In case of IC50 determinations for binding, a non-parametric Kruskal–Wallis testing was performed, again with level of significance chosen at p < 0.05.

[7] = test system: cardiovascular outcome in patients; conditions: DEVOTE interim analysis; ref [16], [17]; cited from earlier work
Excerpt: as §2

[8] = test system: Akt(Thr308) phosphorylation in HL-1 cells; experiment: Akt(Thr308) phosphorylation in HL-1 cells, Western blot; format: cell-based, mouse; conditions: n = 3
Description: as §1

[9] = test system: insulin receptor (membrane embedded, M-IR; CHO-cells overexpressing the IR); experiment: Competition binding, membrane embedded IR (M-IR)
Description: Briefly, CHO-cells overexpressing the IR were collected and re-suspended in ice-cold 2.25 STM buffer (2.25 M sucrose, 5 mM Tris–HCl pH 7.4, 5 mM MgCl2, complete protease inhibitor) and disrupted using a Dounce homogenizer followed by sonication. The homogenate was overlaid with 0.8 STM buffer (0.8 M sucrose, 5 mM Tris–HCl pH 7.4, 5 mM MgCl2, complete protease inhibitor) and ultra-centrifuged for 90 min at 100,000g. Plasma membranes at the interface were collected and washed twice with phosphate buffered saline (PBS). The final pellet was re-suspended in dilution buffer (50 mM Tric-HCl pH 7.4, 5 mM MgCl2, complete protease inhibitor) and again homogenised with a Dounce homogenizer. Competition binding experiments were performed in a binding buffer (50 mM Tris–HCl, 150 mM NaCl, 0.1 % BSA, complete protease inhibitor, adjusted to pH 7.8) in 96-well microplates. In each well 2 µg isolated membrane were incubated with 0.25 mg wheat germ agglutinin polyvinyltoluene polyethylenimine scintillation proximity assay (SPA) beads. […] The radioactivity was measured at equilibrium in a microplate scintillation counter (Wallac Microbeta, Freiburg, Germany).
as §3

[10] = 200 nM, 60 min, HL-1, normalised to tubulin, n = 4-5

Molecule: OO [H2O2, reference compound]
- induction of caspase 3/7 activity ([1]; 800 µM H2O2, 2 h, H9c2-E2, vs. basal, n = 5-6): 4.8 fold
- induction of caspase 3/7 activity (in words) ([1]; H2O2 challenge, H9c2-E2): fivefold increase

Molecule: insulin glargine [IGla]
- prevention of H2O2-induced caspase 3/7 activation (in words) ([1]; H9c2-E2): same potency to prevent caspase 3/7 activation as Ins
- cardiovascular effects vs standard care treatment [2]: non-inferiority
- glucose uptake, comparison between insulins (HL-1 cells): no difference
- time to maximum beating-rate [3]: 10 min
- beating-rate, area under the curve for 6 h [3]: significant increase
- increase in departure velocity (shortening rate) [4]: ~ twofold
- increase in return velocity (re-lengthening rate) [4]: ~ threefold
- increase in sarcomeric shortening [4]: ~ 2.5 fold

Molecule: insulin
- decrease of caspase 3/7 activity compared to H2O2 treatment alone ([1]; 100 nM insulin + 800 µM H2O2, 2 h, H9c2-E2, n = 5-6): up to 70.3%
- time to maximum beating-rate [3]: 10 min
- beating-rate, area under the curve for 6 h [3]: significant increase
- increase in departure velocity (shortening rate) [4]: ~ twofold
- increase in return velocity (re-lengthening rate) [4]: ~ threefold
- increase in sarcomeric shortening [4]: ~ 2.5 fold

Molecule: insulin degludec [IDeg]
- Akt(Ser473) phosphorylation level ([5]; 200 nM, 5 min, HL-1, normalised to tubulin, n = 4-5): significantly lower
- Akt(Ser473) phosphorylation level ([5]; 200 nM, 10 min, HL-1, normalised to tubulin, n = 4-5): significantly lower
- Akt(Ser473) phosphorylation level compared to IGla [5, 10]: still significantly lower
- Akt(Ser473) phosphorylation level compared to Ins and IGlaM1 [5, 10]: similar
- Akt(Ser473) phosphorylation ([5]; HL-1, 5- and 10-min incubation, compared to insulin, insulin glargine and M1): lower
- IC50 ([6]; anti-IR antibody 83-7 SPA, 100 pM [125I]-insulin, pH 7.8, 12 h at 23 °C, mean ± SEM, at least six times on different days, quadruplicates, read-out: IR affinity IC50): 3.12 ± 0.42 nM
- IC50 fold higher compared to Ins ([6]; ratio of IC50 vs. Ins): 5.4 fold
- binding affinity relative to human insulin ([6]; this paper): ~ 18.6%
- prevention of H2O2-induced caspase 3/7 activation (in words) ([1]; H9c2-E2): same potency to prevent caspase 3/7 activation as Ins
- major adverse cardiovascular outcome vs IGla [7]: non-inferiority to IGla
- glucose uptake, comparison between insulins (HL-1 cells): no difference
- Akt(Thr308) phosphorylation, kinetic ([8]; 200 nM, 5, 10 and 60 min, HL-1, same kinetic as for Akt(Ser473)): The same kinetic was observed
- Akt(Thr308) phosphorylation ([8]; 200 nM, 5- and 10-min incubation, HL-1, compared to insulin, insulin glargine and M1): lower
- onset of action on beating-rate [3]: slower onset of action
- time to maximum beating-rate [3]: 20 min
- beating-rate, area under the curve for 6 h [3]: significant increase
- increase in departure velocity (shortening rate) [4]: ~ twofold
- increase in return velocity (re-lengthening rate) [4]: ~ threefold
- increase in sarcomeric shortening [4]: ~ 2.5 fold
- IR affinity (in words) [9]: very low binding affinities
- IC50 ([9]; 2 µg isolated membrane, WGA-PVT-PEI SPA beads, 100 pM [125I]-human Ins, pH 7.8, 12 h at 23 °C, mean ± SEM, at least four independent experiments in quadruplicates, read-out: IR affinity IC50): 19.6 ± 1.1 nM
- IR affinity (in words) ([9]; listed as Insulin degludec): significant lower IR affinity
- IC50 fold higher compared to Ins ([9]; ratio of IC50 vs. Ins): 23.6 fold
- binding affinity compared to Ins ([9]; relative to Ins): ~ 4%
